Laboratory results: the supplement of paper PMC10307832

Compound: Cc1ccc(NC(=O)c2ccc(CN3CCN(C)CC3)cc2)cc1Nc1nccc(-c2cccnc2)n1 [Imatinib] + CCNC(=O)c1noc(-c2cc(C(C)C)c(O)cc2O)c1-c1ccc(CN2CCOCC2)cc1 [Luminespib] (partner 0.01 µM)
Assay: relative viability (nuclei count vs DMSO), 5 days (fraction); higher = more cells survive
Outline: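 Lung cancer cell lines were seeded in 1536-well plates and dosed by pin tool the next day, with either a single drug or a fixed anchor-drug dose combined with five library-drug doses (not always all listed) spaced in √10 steps. Five days later, one step fixed the cells and stained their nuclei (final 0.05% Triton X-100, 1% formaldehyde, 1 ug/ml Hoechst), and nuclei were counted on 4× images. Relative viability is the nuclei count in treated wells divided by the count in vehicle wells, and each value is the median of duplicate plates.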

Row | Cell Line | relative viability (first compound 0.02 µM) | relative viability (first compound 0.2 µM) | relative viability (first compound 0.6325 µM) | relative viability (first compound 2 µM) | relative viability (first compound 0.06325 µM)
1 | 201T | 1.09 | 1.11 | 0.96 | 1.03 | 
2 | A-427 | 1.06 | 0.868 | 0.903 | 0.9 | 
3 | ABC-1 | 0.911 | 0.445 | 0.326 |  | 
4 | BEN | 0.402 | 0.29 | 0.355 | 0.156 | 
5 | CAL-12T | 0.365 | 0.363 | 0.397 | 0.198 | 
6 | COR-L23 | 0.806 | 0.79 | 0.802 | 0.654 | 0.709
7 | COR-L 105 | 0.696 | 0.844 | 0.632 | 0.732 | 
8 | ChaGo-K-1 | 0.585 | 0.603 | 0.624 | 0.56 | 0.592
9 | EKVX |  | 0.817 | 0.926 | 0.847 | 0.712
10 | EMC-BAC-2 | 1.25 | 1.36 | 1.14 |  | 1.5
11 | EPLC-272H | 0.312 | 0.456 | 0.306 | 0.14 | 
12 | H3255 | 0.922 |  | 0.865 | 0.777 | 0.415
13 | HARA | 0.912 | 0.684 | 0.489 | 0.997 | 
14 | HCC-15 | 0.311 | 0.358 | 0.33 | 0.297 | 
15 | HCC-44 | 1.24 |  | 0.959 |  | 0.552
16 | HCC-827 |  | 0.807 | 0.545 | 0.729 | 0.322
17 | HOP-62 | 1.06 | 1.03 | 0.886 |  | 0.84
18 | LC-2-ad | 1.23 | 0.935 | 1 | 1.07 | 0.744
19 | LCLC-97TM1 | 0.89 | 0.864 | 0.889 | 0.813 | 
20 | LCLC-103H | 1.03 | 1.04 | 0.892 | 0.863 | 0.8
21 | LK-2 | 0.168 | 0.168 | 0.196 | 0.199 | 0.174
22 | LOU-NH91 | 0.319 | 0.361 | 0.347 | 0.303 | 0.35
23 | LU99A | 0.276 | 0.227 | 0.219 | 0.245 | 0.247

Row | Cell Line | relative viability (first compound 0.02 µM) | relative viability (first compound 0.2 µM) | relative viability (first compound 0.6325 µM) | relative viability (first compound 2 µM) | relative viability (first compound 0.06325 µM)
24 | LXF-289 | 0.805 | 0.615 | 0.566 | 0.672 | 0.5
25 | NCI-H23 | 0.248 | 0.221 | 0.185 | 0.189 | 0.225
26 | NCI-H322M | 0.987 | 0.826 | 0.873 | 0.826 | 0.868
27 | NCI-H358 | 0.317 | 0.501 | 0.308 | 0.418 | 0.608
28 | NCI-H441 | 0.37 | 0.448 | 0.304 | 0.309 | 0.326
29 | NCI-H460 | 0.0343 | 0.0365 | 0.0344 | 0.0321 | 0.0424
30 | NCI-H520 | 0.21 | 0.23 | 0.189 | 0.198 | 0.236
31 | NCI-H596 | 0.984 | 1.01 | 0.798 | 0.91 | 1.29
32 | NCI-H647 | 0.198 | 0.134 | 0.119 | 0.146 | 0.121
33 | NCI-H650 | 0.887 | 0.641 | 0.796 | 0.769 | 0.67
34 | NCI-H661 | 0.931 | 1.01 | 0.934 | 0.874 | 1.03
35 | NCI-H727 | 0.319 | 0.242 | 0.323 | 0.31 | 
36 | NCI-H838 | 0.33 | 0.363 | 0.275 | 0.266 | 0.3
37 | NCI-H1395 | 0.79 | 0.653 | 0.737 | 0.676 | 0.697
38 | NCI-H1437 | 1.25 | 1.28 | 1.22 | 1.08 | 1.18
39 | NCI-H1563 | 0.486 | 0.545 | 0.496 | 0.471 | 0.537
40 | NCI-H1650 | 0.189 | 0.184 | 0.192 | 0.193 | 0.2
41 | NCI-H1651 | 0.926 | 0.947 | 0.749 | 0.83 | 0.829
42 | NCI-H1666 | 1.06 |  | 1.18 | 1.03 | 1.21
43 | NCI-H1734 | 0.194 | 0.181 | 0.177 | 0.233 | 0.204
44 | NCI-H1755 | 0.402 | 0.273 | 0.454 | 0.418 | 0.371
45 | NCI-H1792 | 0.519 | 0.432 | 0.447 | 0.365 | 0.321
46 | NCI-H1793 | 0.253 | 0.164 | 0.167 | 0.189 | 

Row | Cell Line | relative viability (first compound 0.02 µM) | relative viability (first compound 0.2 µM) | relative viability (first compound 0.6325 µM) | relative viability (first compound 2 µM) | relative viability (first compound 0.06325 µM)
47 | NCI-H1915 | 1.1 | 0.694 | 0.637 | 0.766 | 
48 | NCI-H1944 | 0.831 |  | 0.665 | 0.787 | 0.655
49 | NCI-H1975 | 0.254 | 0.201 | 0.178 | 0.274 | 0.191
50 | NCI-H1993 | 0.949 | 0.885 | 0.608 | 0.854 | 0.745
51 | NCI-H2009 | 1.15 | 0.888 | 1.08 | 0.934 | 
52 | NCI-H2023 | 1.04 | 1.07 | 1.17 | 1.1 | 1.03
53 | NCI-H2085 | 0.548 | 0.421 | 0.463 | 0.541 | 0.628
54 | NCI-H2087 | 0.205 | 0.155 | 0.159 | 0.25 | 
55 | NCI-H2126 | 0.955 | 0.979 |  | 0.959 | 
56 | NCI-H2170 | 0.901 | 0.526 | 0.502 | 0.735 | 0.395
57 | NCI-H2228 | 0.147 | 0.126 | 0.12 | 0.152 | 
58 | NCI-H2342 | 0.787 | 0.728 | 0.649 | 0.715 | 0.757
59 | NCI-H2347 | 0.499 | 0.431 | 0.475 | 0.608 | 0.425
60 | NCI-H2405 | 0.682 | 0.575 | 0.58 | 0.76 | 
61 | NCI-H3122 | 0.0854 | 0.112 | 0.126 | 0.076 | 0.0818
62 | PC-3 [JPC-3] | 0.764 | 0.705 | 0.704 | 0.734 | 
63 | PC-14 | 0.16 | 0.232 |  | 0.165 | 
64 | RERF-LC-KJ | 1.27 | 1.3 | 1.03 | 1.31 | 1.3
65 | SK-LU-1 | 0.212 | 0.201 | 0.243 | 0.188 | 0.222
66 | SK-MES-1 | 0.906 | 0.804 | 0.714 | 0.873 | 
67 | SW 1573 | 0.23 | 0.293 | 0.26 | 0.233 | 0.348
68 | UMC-11 | 1.19 | 1.04 |  | 0.96 | 1.22
